One block for each compound: values may come before it.
Columns and labels:
Assay type in all cases: cell-based
[1] = test system: Staphylococcus aureus ATCC 6538; experiment: MIC, agar incorporation test; conditions: ATCC6538, 24 hours at 37° C.
Protocol: (§1) Determination of the Minimum Inhibitory Concentration (MIC) in the Agar Incorporation Test (MIC Test) [table] The plates are incubated at 37° C. for 24 hours (A. niger at 28° C. for 3 days) and then the highest dilution (lowest concentration) of the test substance at which growth is just no longer discernible (corresponds to the MIC) is determined.

[2] = test system: Aspergillus niger ATCC 6275; experiment: MIC, agar incorporation test; conditions: ATCC6275, 72 h, 28° C. for 3 days
Protocol: as §1

[3] = test system: C. minutissimum ATCC 23348; experiment: MIC, agar incorporation test; conditions: Corynebacterium minutissimum, ATCC23348, 24 hours at 37° C.
Protocol: as §1

[4] = test system: Candida albicans ATCC 10231; experiment: MIC, agar incorporation test; conditions: ATCC10231, 24 hours at 37° C.
Protocol: as §1

[5] = test system: Corynebacterium xerosis ATCC 373; experiment: MIC, agar incorporation test; conditions: ATCC373, 24 hours at 37° C.
Protocol: as §1

[6] = test system: Escherichia coli ATCC 10536; experiment: MIC, agar incorporation test; conditions: ATCC10536, 24 hours at 37° C.
Protocol: as §1

[7] = test system: Escherichia coli NCTC 8196; experiment: MIC, agar incorporation test; conditions: NCTC8196, 24 hours at 37° C.
Protocol: as §1

[8] = test system: Klebsiella pneumoniae ATCC 4352; experiment: MIC, agar incorporation test; conditions: ATCC4352, 24 hours at 37° C.
Protocol: as §1

[9] = test system: Propionibacterium acnes ATCC 6919; experiment: MIC, agar incorporation test; conditions: Cutibacterium acnes, ATCC6919, 24 hours at 37° C.
Protocol: as §1

[10] = test system: Proteus vulgaris ATCC 6896; experiment: MIC, agar incorporation test; conditions: ATCC6896, 24 hours at 37° C.
Protocol: as §1

[11] = test system: Pseudomonas aeruginosa ATCC 15442; experiment: MIC, agar incorporation test; conditions: ATCC15442, 24 hours at 37° C.
Protocol: as §1

[12] = test system: Salmonella choleraesuis ATCC 9184; experiment: MIC, agar incorporation test; conditions: Salmonella enterica, 24 hours at 37° C.
Protocol: as §1

[13] = test system: Staphylococcus epidermidis ATCC 12228; experiment: MIC, agar incorporation test; conditions: ATCC12228, 24 hours at 37° C.
Protocol: as §1

[14] = test system: Actinomyces viscosus ATCC 43146; experiment: Substantivity on hydroxyapatite and growth-inhibiting action; conditions: discs pre-treated with artificial saliva, 30 minutes in ethanolic solution at 5 ppm; 24 hours at 37° C.; compared to untreated control
Protocol: Testing the Substantivity of 2-tert-butyl-4-n-octylamino-6-pyrid-2-yl-1,3,5-triazine (140) on Hydroxyapatite and Determination of the Growth-Inhibiting Action Hydroxyapatite discs (diameter 10 mm) are placed in artificial saliva (Deutsche Zahnärztliche Zeitschrift DZZ 5/2002) for 4 hours, rinsed 4 times in NaCl solution and then incubated for 30 minutes in an ethanolic solution of the test substance (140) at 5 ppm. The discs are then transferred to a Nunclon-surface titre plate (12 wells) and incubated at 37° C. for 24 hours in CASO nutrient medium inoculated with Actinomyces viscosus ATCC 43146 (about 10^5/ml).

[15] = test system: biofilm of a defined mixed culture of various gram+ and gram− oral micro-organisms and a yeast (Candida albicans); experiment: Activity in the biofilm model (supragingival plaque on hydroxyapatite discs)
Text: Testing the Activity of 2-tert-butyl-4-n-octylamino-6-pyrid-2-yl-1,3,5-triazine (140) in the Biofilm Model Principle: See Guggenheim et al. (2001), “Validation of an in vitro biofilm model of supragingival plaque”, J. Dent Res. 80 (1). Hydroxyapatite discs are pre-treated with human saliva and a biofilm of a defined mixed culture of various gram+ and gram− oral micro-organisms (Streptococci, Actinomyces sp., Veillonella & Fusobacterium sp. and others) and a yeast (Candida albicans) is allowed to grow on the hydroxyapatite. Over the course of the test, which lasts a total of 4 days, the discs are immersed several times in an application formulation of the substance (0.5% (140)). Finally, the biofilm is harvested and the living cell count is determined.

- MIC [1]: 8 mg/L
Compound: CCCCCCCCCCCC(=O)Nc1nc(C)nc(-c2ccncc2)n1 [Compound of formula (123)]

- MIC [1]: 30 mg/L
Compound: CCCCCCNc1nc(C)nc(-c2ccccn2)n1 [Compound of formula (131)]

- MIC [1]: 60 mg/L
Compound: CCCCCCNc1nc(C)nc(-c2cccnc2)n1 [Compound of formula (135)]

- MIC [2]: > 120 mg/L
- MIC [3]: 0.94 mg/L
- MIC [4]: > 120 mg/L
- MIC [5]: 0.94 mg/L
- MIC [6]: 60 mg/L
- MIC [7]: 60 mg/L
- MIC [8]: 120 mg/L
- MIC [9]: 0.94 mg/L
- MIC [10]: > 120 mg/L
- MIC [11]: > 120 mg/L
- MIC [1]: 0.94 mg/L
- MIC [13]: 120 mg/L
Compound: CCCCCCCCNc1nc(-c2ccccn2)nc(C(C)(C)C)n1 [Compound of formula (140), 2-tert-butyl-4-n-octylamino-6-pyrid-2-yl-1,3,5-triazine]
- MIC [12]: 120 mg/L
- inhibition of the growth of Actinomyces viscosus following adsorption onto hydroxyapatite discs [14]: inhibition of the growth
- action on microbial count of the biofilm (in words) ([15]; compared to placebo formulation and control containing 10% ethanol): clear reduction in the microbial count
- living cell count of biofilm (Mean) ([15]; hydroxyapatite discs pre-treated with human saliva, 4 days, discs immersed several times in application formulation (0.5% (140))): 1.1 × 10^5 CPU/disc
